Results as given in US20040191208A1, “Cosmetic composition for men's skin care and hair care” (Laboratoires Clarins, a corporation of France, priority 2001, published 2004).

Experiments:
[1] = tested on: synthesis of prostaglandins (PGE2); assay: PGE2 synthesis intrinsic to cultured keratinocytes (approach 1), ELISA, evaluating inhibition of cyclooxygenase; type: cell-based, human; settings: aspirin 100 μM
Source text: (§1) In the initial steps of the induction of inflammation, the arachidonic acid stored in the cell membranes is liberated. Once the arachidonic acid has been liberated, it can follow different metabolic pathways. The pathways include: the cyclooxygenase enzyme pathway which leads to the prostaglandins, and the lipoxygenase enzyme pathway which leads to the leukotrienes. The anti-inflammatory activity of purslane extract was, therefore, tested in vitro by evaluating the inhibition of cyclooxygenase. The ELISA-based test employed made it possible to monitor the synthesis of prostaglandins (PGE2) in cultures of human keratinocytes. The cells were used at subconfluence with a cellular multiplication and an active metabolic activity. Two approaches were employed: approach 1: synthesis of the PGE2 intrinsic to the cultured cells; and approach 2: synthesis of the PGE2 induced chemically by PMA (phorbol myristate acetate), an inflammatory agent. Normal human keratinocytes were cultured at 37° C. for 48 hours in a defined medium in the presence of the following products: approach 1: -purslane extract (0.1%, 0.5%, 1% and 3% vol/vol) - aspirin 100 μM (anti-inflammatory, reference compound) approach 2: - purslane extract (0.1%, 0.5%, 1% and 3% vol/vol) - indomethacin 1 μM (anti-inflammatory, reference compound) - stimulation with PMA 1 μg/ml (after 24 hours of incubation). At the end of 48 hours, the different media were collected for quantitative determination of the PGE2.

[2] = tested on: synthesis of prostaglandins (PGE2); assay: PGE2 synthesis induced by PMA in cultured keratinocytes (approach 2), ELISA, evaluating inhibition of cyclooxygenase; type: cell-based, human; settings: indomethacin 1 μM
Source text: as §1, with “PGE2. The protective capacity against the liberation of prostaglandins induced by the pro-inflammatory agent PMA was studied using approach 2.” for “PGE2.”

CC(=O)Oc1ccccc1C(=O)O [Aspirin, aspirin]
inhibition at 100 µM ([1]; Homo sapiens, Keratinocyte, intrinsic PGE2, 48 h, read-out: % inhibition of the liberation of PGE2): 60.3% | % control ([1]; PGE2 relative to control, intrinsic PGE2, 48 h): 39.7% | Pg PGE2/mg prot ([1]; normal human keratinocytes, 48 h, intrinsic PGE2): 1968.2 Pg PGE2/mg prot

COc1ccc2c(c1)c(CC(=O)O)c(C)n2C(=O)c1ccc(Cl)cc1 [Indomethacin, indomethacin]
inhibition at 1 µM ([2]; Homo sapiens, Keratinocyte, PMA-induced PGE2, read-out: % inhibition of the liberation of PGE2): 80% | % control ([2]; PGE2 relative to control, PMA-induced): 21.0% | Pg PGE2/mg prot ([2]; PMA 1 μg/ml stimulation after 24 h, 48 h): 1683.9 Pg PGE2/mg prot | % inhibition of the liberation of PGE2 ([2]; PMA-induced PGE2): 79.0%
